# Data taken from US20240165123A1, “USE OF A COMPOUND CONTAINING A TRICYCLIC HETEROARYL GROUP” (CSPC Zhongqi Pharmaceutical Technology (Shijiazhuang) Co., …, priority 2021, published 2024).
# Experiments:
# [1] = system: OXA-induced Balb/c mouse atopic dermatitis model; test: Pharmacodynamic test in the OXA-induced mouse atopic dermatitis model; type: in vivo, female Balb/c mice
# Excerpt: The purpose of this test was to evaluate the pharmacodynamics of Compound (I) in the OXA-induced Balb/c mouse atopic dermatitis model. Repeated OXA stimulation of the dorsal skin of mice could produce a long-term inflammatory reaction. This model was closer to the clinical skin inflammation and was a common model for screening and evaluating compounds with anti-inflammatory activity.
# Female Balb/c mice aged 8-9 weeks, number: 70
# According to the body weight of animals in each group before administration, they were randomly divided into 7 groups with 10 animals in each group.
# OXA induction was performed on the 7th day. The induction mode was to apply 5% OXA (dissolved in the acetone/olive oil (4/1) solvent) to the back of mice near the neck in an amount of 10 μL (1.5 cm×1.5 cm). Mice in the normal control group were applied with 10 μL of the acetone/olive oil (4/1) solvent in the same way. From the 1st da to 22nd day, the immunostimulation was performed, and 100 μL of 0.1% OXA (dissolved in the acetone/olive oil (4/1) solvent) was evenly applied on the back of mice near the neck. The application was performed every two days. Mice in the normal control group were applied with 100 μL of the acetone/olive oil (4/1) solvent in the same way. On the day of the immunostimulation, measuring the skin thickness, clinically scoring and photographing were required, and the OXA application was carried out after the above work was completed.
# Compound (I) was administered by gavage twice a day (PO, bid) from the 1st to 22nd day. The administration was performed in the morning and completed before measuring the skin thickness, clinically scoring, photographing, and the OXA immunostimulation. The interval between two administrations was 8 hours.
# Body weight data were recorded twice a week.
# Skin thickness (1.5 cm×1.5 cm, the modeling area) was measured with a Mitutoyo digital indicator (Mitutoyo digimatic indicator, Type ID-C, USA) from the 1st to 22nd day. The measurement was performed every two days. If the skin thickness measurement and the OXA immunostimulation were performed on the same day, the skin thickness measurement would be preferred.
# The skin in the modeling area was clinically scored according to the skin scoring criteria in Table 12 from the 1st to 22nd day and evaluated every two days. If the skin clinical scoring and the OXA immunostimulation were performed on the same day, the skin clinical scoring would be preferred.
# At the end of the study, the tissue in the modeling area was stained with hematoxylin eosin for the skin pathological scoring and the epidermal thickness measurement.
# After the mice were sacrificed, the dorsal skin was removed and fixed in 10% neutral formalin for 24 hours. It was dehydrated, then embedded in paraffin and made into 4-micron sections. The skin sections were stained with hematoxylin eosin, and the inflammatory cell infiltration and tissue changes in the stratum corneum, the epidermis layer and the dermis layer were observed under the microscope, and the pathological scores were made. The scoring criteria were: inflammatory cell aggregation and edema, which were divided into slight 1 point, moderate 2 points, and severe 3 points; telangiectasia, which was divided into slight 1 point, moderate 2 points, and severe 3 points.
# The specific scoring criteria of inflammatory cell aggregation were as follows: (1) slight-1 point: inflammatory cells occupied a small amount of <10% of the dermal area of the skin; (2) moderate-2 points: inflammatory cells occupied 10%-50% of the dermal area of the skin; (3) severe-3 points: the inflammatory cells occupied greater than 50% of the dermal area of the skin. […]
# [2] = Phase I clinical trial, single ascending dose; type: in vivo; settings: human; single ascending dose up to 240 mg
# Protocol: Compound (I) had no effect on the central nervous system, respiratory system and cardiovascular system of animals, and was expected to have no side effects on the central nervous system, respiratory system and cardiovascular system of human. The NOAEL of single administration to rats was 2000 mg/kg, the MTD of administration to Beagle dogs was 500 mg/kg/time (1000 mg/kg/day), the NOAEL of repeated administration to rats for 28 days was 10 mg/kg/time (20 mg/kg/day), and the NOAEL of repeated administration to Beagle dogs for 28 days was 3 mg/kg/time (6 mg/kg/ day). […] The effective dose for rats was 3 mg/kg/time bid. According to the exposure, Compound (I) had 1-fold safety window in Beagles and 8-13-fold safety window in SD rats. According to the dose calculation, Compound (I) had 3-fold safety windows in both Beagle dogs and SD rats. The proposed and undetermined initial ascending dose of Compound (I) in the first-in-human trial was 15 mg. […] Therefore, according to the pre-clinical toxicological study data of Compound (I), the single ascending doses of phase I clinical trial to be carried out were 15 mg, 45 mg, 60 mg, 90 mg, 135 mg, 180 mg, 240 mg, 300 mg and 360 mg.
# [3] = Effect on central nervous, respiratory and cardiovascular system of animals; type: in vivo
# Protocol: According to the general toxicology study in accordance with the NMPA “Good Laboratory Practice for Non-clinical Laboratory Studies” and FDA GLP specification (21CFR Part 58), and in line with the requirements of International Conference on Harmonization of Technical Requirements for Registration of Pharmaceuticals for Human Use (ICH) and the NMPA relevant guidelines, the toxicology study on Compound (I) was carried out to provide safety data support for the use of Compound (I) in clinical patients. The administration mode and the experimental results were as follows: […]
# [4] = Rat effective dose for safety window calculation; type: in vivo
# [5] = 3 mpk PO bid, after 22 days of treatment
structure (smiles),measurement,setting,value
"NC(=O)c1cnc(Nc2ccc3c(c2)OC[C@H]2CN(S(=O)(=O)C4CC4)CCN32)nc1NC1CC1 [Compound (I), (R)-4-(cyclopropylamino)-2-((3-(cyclopropylsulfonyl)-1,2,3,4,4a,5-hexahydrobenzo[b]pyrazolo[1,2-d][1,4]oxazin-8-yl)amino)pyrimidine-5-arboxamide]",Influence on the body weight of mice,"[1]; 3, 10, 30 and 60 mpk PO bid, end of the study",no significant influence on the body weight of mice
same,Body weight,"[1]; 3 mpk PO bid, 1st Day",18.11 ± 0.13 g
same,Skin clinical score,"[1]; 3 mpk PO bid, 1st Day",0.4 ± 0.16
same,Skin thickness (modeling area),"[1]; 3 mpk PO bid, 1st day",0.511 ± 0.016 mm
same,Body weight,"[1]; 3 mpk PO bid, 7th Day",18.83 ± 0.20 g
same,Skin thickness (modeling area),"[1]; 3 mpk PO bid, 7th day",0.944 ± 0.026 mm
same,Skin clinical score,"[1]; 3 mpk PO bid, 9th day",3.1 ± 0.10
same,Skin thickness (modeling area),"[1]; 3 mpk PO bid, 17th day",1.361 ± 0.043 mm
same,Skin clinical score,"[1]; 3 mpk PO bid, 19th day",2.9 ± 0.10
same,Skin clinical score,"[1]; 3 mpk PO bid, 22nd day",3.0 ± 0.00
same,Skin thickness (modeling area),"[1]; 3 mpk PO bid, 22nd day",1.368 ± 0.028 mm
same,Epidermal thickness,[1]; [5],75.79 ± 3.36 μm
same,Pathological score,[1]; [5],6.4 ± 0.34
same,Body weight,"[1]; 3 mpk PO bid, −7th Day",18.11 ± 0.13 g
same,Body weight,"[1]; 10 mpk PO bid, 1st Day",18.11 ± 0.13 g
same,Skin clinical score,"[1]; 10 mpk PO bid, 1st Day",0.4 ± 0.16
same,Skin thickness (modeling area),"[1]; 10 mpk PO bid, 1st day",0.535 ± 0.027 mm
same,Body weight,"[1]; 10 mpk PO bid, 7th Day",18.80 ± 0.22 g
same,Skin thickness (modeling area),"[1]; 10 mpk PO bid, 7th day",0.958 ± 0.026 mm
same,Skin clinical score,"[1]; 10 mpk PO bid, 9th day",3.0 ± 0.00
same,Skin thickness (modeling area),"[1]; 10 mpk PO bid, 17th day",1.257 ± 0.020 mm
same,Skin clinical score,"[1]; 10 mpk PO bid, 19th day",2.7 ± 0.15
same,Skin clinical score,"[1]; 10 mpk PO bid, 22nd day",2.7 ± 0.15
same,Skin thickness (modeling area),"[1]; 10 mpk PO bid, 22nd day",1.338 ± 0.021 mm
same,Body weight,"[1]; 10 mpk PO bid, −7th Day",18.11 ± 0.13 g
same,Body weight,"[1]; 30 mpk PO bid, 1st Day",18.10 ± 0.12 g
same,Skin clinical score,"[1]; 30 mpk PO bid, 1st Day",0.5 ± 0.17
same,Skin thickness (modeling area),"[1]; 30 mpk PO bid, 1st day",0.534 ± 0.029 mm
same,Body weight,"[1]; 30 mpk PO bid, 7th Day",18.79 ± 0.11 g
same,Skin thickness (modeling area),"[1]; 30 mpk PO bid, 7th day",0.976 ± 0.021 mm
same,Skin clinical score,"[1]; 30 mpk PO bid, 9th day",3.0 ± 0.00
same,Body weight,"[1]; 30 mpk PO bid, −7th Day",18.10 ± 0.12 g
same,Body weight,"[1]; 60 mpk PO bid, 1st Day",18.10 ± 0.12 g
same,Skin clinical score,"[1]; 60 mpk PO bid, 1st Day",0.6 ± 0.16
same,Skin thickness (modeling area),"[1]; 60 mpk PO bid, 1st day",0.556 ± 0.035 mm
same,Body weight,"[1]; 60 mpk PO bid, 7th Day",18.92 ± 0.13 g
same,Skin thickness (modeling area),"[1]; 60 mpk PO bid, 7th day",0.993 ± 0.033 mm
same,Skin clinical score,"[1]; 60 mpk PO bid, 9th day",3.0 ± 0.00
same,Body weight,"[1]; 60 mpk PO bid, −7th Day",18.10 ± 0.12 g
same,Safety in phase I clinical trial,[2],no safety issues above Level 3
same,"Effect on the central nervous system, respiratory system and cardiovascular system",[3],no effect
same,AUC,"[4]; in vivo, rat effective dose 3 mg/kg/time BID",4310 ng·h/mL
same,"Safety window, dose method",[4]; rat effective dose (reference),1 fold
same,Effective dose for rats,[4]; rats,3 mg/kg/time bid
